{
  "source": "patent US7655626B2",
  "about": "“Antiangiogenic peptides” (Universite de Liege, priority 2004, dated 2010)",
  "key": {"[1]": {"assay": "Secondary structure by ATR-FTIR", "format": "physicochemical", "details": "peptide dissolved in 100% DMSO", "procedure": "The conformation of the peptide in solution is analyzed by Fourier transformed infrared spectroscopy (ATR-FTIR). The sample (20 μg) is spread on a Germanium plate and spectra are recorded between 1800 and 1000 cm−1. The deconvolution of the 1700-1600 cm−1 area, corresponding to the amide I band, allows the determination of the secondary structure of the peptide (Goormaghtigh, E., et al. Biochim Biophys Acta 1422:[…] (1999)). The secondary structure of the peptide is given Table 3. Tilted peptides are often in β structure in solution, while being helical in the presence of lipids (Martin, I., et al. Biochem Biophys Res Commun 175:872-9 (1991))."}, "[2]": {"assay": "Lipid phase (liposome) fusion, R18 fluorescence", "details": "for Relative liposome fusion, pH 8 UC / Relative liposome fusion, pH 4 UC / Relative liposome fusion, pH 6 UC: uncharged liposomes; for Relative liposome fusion, pH 4 C / Relative liposome fusion, pH 6 C / Relative liposome fusion, pH 8 C: charged liposomes", "procedure": "Lipid phase fusion was measured by following the fluorescence of a liposoluble marker, R18. When incorporated into liposomes at a high surface density, R18 fluorescence is attenuated. Upon dilution of the marker through membrane fusion of labeled and unlabeled liposomes, the attenuation is relieved and R18 fluorescence increases. Labeled liposomes were prepared by blending R18 into the lipid film (see table 1). Labeled and unlabeled liposomes were mixed in a 1:4 ratio (w/w) and diluted to a concentration of 50 μM. Fluorescence is measured at room temperature (excitation λ: 560 nm, emission λ: 590 nm) on a Perkin Elmer LS-50B fluorimeter. The ability of PO-PRL to induce liposome fusion was analyzed in two different liposome preparations at different pH (table 1).\nThe following buffers were used: pH 8 buffer (10 mM Tris-HCl, pH=8; 150 mM NaCl; 0.01% EDTA; 1 mM NaN3), pH 6 buffer (10 mM Sodium-Acetate, pH=6; 150 mM NaCl; 0.01% EDTA; 1 mM NaN3), pH 4 buffer (10 mM Sodium Acetate, pH=4; 57 mM Acetic Acid)\nThe following concentrations of the peptide were used: • 600 μM corresponding to a molar peptide/lipid ratio (R) of 0.2 • 300 μM corresponding to a peptide/lipid ratio (R) of 0.1 • 150 μM corresponding to a peptide/lipid ratio (R) of 0.05 • 60 μM corresponding to a peptide/lipid ratio (R) of 0.02 • 30 μM corresponding to a peptide/lipid ratio (R) of 0.01."}, "BACE cells [3]": {"system": "BACE cells", "assay": "Apoptosis by flow cytometry (propidium iodide, sub-G1 population)", "format": "cell-based, Bovine", "details": "10 nM; 18-h treatment; untreated cells 1%", "procedure": "In order to determine the effect of MPB-PO-PRL on endothelial cell apoptosis, the inventors have analyzed the DNA content of MBP-PO-PRL treated cells by flow cytometry. For this purpose, DNA was labeled with propidium iodide. Bovine adrenal cortex endothelial (BACE) cells were plated in low-glucose Dulbbecco's modified Eagle's medium containing 10% fetal calf serum (FCS) and 100 U/ml penicillin/streptomycin per ml (10% FCS medium) at a density of cells 5×10^5/100 mm plate. 24 h after plating, cells were treated for 18 h with the proteins of interest. The cells were then harvested and fixed and permeabilized in ice-cold ethanol for 2 h before centrifugation and incubation (at 37° C. for 30 min) in PBS containing Rnase (5 μg/ml) and propidium iodide (50 μg/ml). The cells were analysed using a Coulter Epics XL flow cytometer."}, "[4]": {"system": "B16-F10 murine melanoma cells", "assay": "Viability assay (calcein-AM), B16-F10", "format": "cell-based", "details": "10 nM; 72 h", "procedure": "(§1) In order to determine whether the effect of tilted peptides exerted on endothelial cells is cell specific, a viability assay was performed on BACE and ABAE endothelial cells and on two tumoral cells lines, the B16-F10 murine melanoma cells and the MDA-MB-231 human breast cancer cell. Viable cells are detected by the presence of intracellular esterase, determined by the enzymatic conversion of non fluorescent calcein AM (an ester derivative) into fluorescent calcein.\n(§2) To determine whether the activity of the MBP-PO-PRL and MBP-PO-GH is specific for endothelial cells, their ability to affect viability of B16-F10 and MDA-MB-231 cell line was determined. 25000 MDA-MB-231 cells and B16-F10 cells were plated in 24-well plates, respectively in 0.5 ml 10% FCS/RPMI medium and in 10% FCS/DMEM 4500 medium. The cells were treated with recombinant proteins or campthotecin for 72 h. Cells were washed, incubated with calcein-AM and fluorescence determined as described above."}, "[5]": {"system": "MDA-MB-231 human breast cancer cell", "assay": "Viability assay (calcein-AM), MDA-MB-231", "format": "cell-based", "details": "10 nM; 72 h", "procedure": "as §1, §2"}, "BACE cells [6]": {"system": "BACE cells", "assay": "In vitro capillary formation, collagen gel assay", "format": "cell-based, Bovine", "details": "10 nM", "procedure": "In order to further analyze the ability of the MBP-PO-PRL to prevent angiogenesis in vitro, its capacity to prevent capillary formation was analyzed in a collagen gel assay. This assay was performed as follows: 20000 cells were plated between two collagen gels (5 volumes rat tail collagen, 1 volume 10×M199 medium, 50 mM NaHCO3). Gels were overlaid with 10% FBS medium containing or not recombinant proteins of interest."}},
  "data": [
    {"molecule": "FLSLIVSILRSWNE [PO-PRL]", "values": [
      {"measurement": "Secondary structure: Alpha", "setting": "[1]", "value": 16, "unit": "%"},
      {"measurement": "Secondary structure: Beta", "setting": "[1]", "value": 63, "unit": "%"},
      {"measurement": "Secondary structure: Coil", "setting": "[1]", "value": 9, "unit": "%"},
      {"measurement": "Secondary structure: Turn", "setting": "[1]", "value": 12, "unit": "%"},
      {"measurement": "Relative liposome fusion, pH 8 UC", "setting": "[2]; R 0.05 (150 μM), 15 min", "value": 38, "unit": "%"},
      {"measurement": "Relative liposome fusion, pH 4 C", "setting": "[2]; R 0.05, 15 min", "value": 35, "unit": "%"},
      {"measurement": "Relative liposome fusion, pH 4 UC", "setting": "[2]; R 0.05, 15 min", "value": 100, "unit": "%"},
      {"measurement": "Relative liposome fusion, pH 6 C", "setting": "[2]; R 0.05, 15 min", "value": 35, "unit": "%"},
      {"measurement": "Relative liposome fusion, pH 6 UC", "setting": "[2]; R 0.05, 15 min", "value": 38, "unit": "%"},
      {"measurement": "Relative liposome fusion, pH 8 C", "setting": "[2]; R 0.05, 15 min", "value": 34, "unit": "%"},
      {"measurement": "Relative liposome fusion, pH 8 UC", "setting": "[2]; R 0.1 (300 μM), 15 min", "value": 64, "unit": "%"},
      {"measurement": "Relative liposome fusion, pH 4 C", "setting": "[2]; R 0.1, 15 min", "value": 34, "unit": "%"},
      {"measurement": "Relative liposome fusion, pH 4 UC", "setting": "[2]; R 0.1, 15 min", "value": 105, "unit": "%"},
      {"measurement": "Relative liposome fusion, pH 6 C", "setting": "[2]; R 0.1, 15 min", "value": 44, "unit": "%"},
      {"measurement": "Relative liposome fusion, pH 6 UC", "setting": "[2]; R 0.1, 15 min", "value": 55, "unit": "%"},
      {"measurement": "Relative liposome fusion, pH 8 C", "setting": "[2]; R 0.1, 15 min", "value": 41, "unit": "%"},
      {"measurement": "Relative liposome fusion, pH 4 C", "setting": "[2]; R 0.2, 15 min", "value": 47, "unit": "%"},
      {"measurement": "Relative liposome fusion, pH 4 UC", "setting": "[2]; R 0.2, 15 min", "value": 97, "unit": "%"},
      {"measurement": "Relative liposome fusion, pH 6 C", "setting": "[2]; R 0.2, 15 min", "value": 87, "unit": "%"},
      {"measurement": "Relative liposome fusion, pH 6 UC", "setting": "[2]; R 0.2, 15 min", "value": 68, "unit": "%"},
      {"measurement": "Relative liposome fusion, pH 8 C", "setting": "[2]; R 0.2, 15 min", "value": 64, "unit": "%"},
      {"measurement": "Relative liposome fusion, pH 8 UC", "setting": "[2]; R (peptide/lipid) 0.2 (600 μM), after 15 min, reference set at 100%", "value": 100, "unit": "%"}
    ]},
    {"molecule": "16K hPRL: 16 kDa N-terminal fragment of human prolactin, positive control (protein) LPICPGGAARCQVTLRDLFDRAVVLSHYIHNLSSEMFSEFDKRYTHGRGFITKAINSCHTSSLATPEDKEQAQQMNQKDFLSLIVSILRSWNEPLYHLVTEVRGMQEAPEAILSKAVEIEEQTKRLLEGMELIVSQVHP", "values": [
      {"measurement": "percentage of sub-G1 cell population", "setting": "BACE cells [3]", "value": "55,9%"},
      {"measurement": "cell viability", "setting": "[4]", "value": "do not affect viability"},
      {"measurement": "cell viability", "setting": "[5]", "value": "do not affect viability"},
      {"measurement": "capillary formation in collagen gel", "setting": "BACE cells [6]", "value": "prevents capillary formation"}
    ]}
  ]
}
